Laboratory results from patent publication US20050107315A1, “Mammary-associated serum amuloid a3 promoter sequences and used for same” (Board of Regents of the University of Nebraska, priority 2001, published 2005).

How the values were obtained:
MUC2 mRNA = MUC2 mRNA induction in intestinal epithelial cells (MUC2 mRNA/28S rRNA ratio); assay type: cell-based, human; settings: for MUC2 mRNA/28S rRNA ratio, mean: conditions favoring MUC2 expression, peptides at conditions optimized for MUC3 (50 μg/ml, 30 min), control = 100
Source text: (§1) These four peptides were used in a cell culture assay designed to evaluate them for their properties of inducing mucin (MUC) mRNA production, either MUC3 or MUC2 according to the methods described by Mack et al. (Biochem. Biophys. Res. Commun. 199: 1012-1018, 1994 and Am J Physiol. Vol. 4, part 1, pg. G841-950, 1999).
MUC2 Stimulation. To address whether the N-Terminal 10 amino acid bovine colostrum-SAA peptide would stimulate mRNA synthesis for MUC2 production, intestinal epithelial cells were cultured under conditions favoring MUC2 expression rather than MUC3. All peptides were used at concentrations and conditions that were previously optimized for MUC3 stimulation. None of the peptides stimulated the production of MUC2 mRNA. […] Additionally, conditions were changed to 2× the optimum MUC3 incubation time (1 hr). […] The evidence strongly indicates specificity of function in stimulating the production of a mucin produced mainly in the small intestine (MUC3) over one produced primarily in the large intestine (MUC2).

MUC3 mRNA = MUC3 mRNA induction in intestinal epithelial cells (MUC3 mRNA/28S rRNA ratio); assay type: cell-based, human; settings: for MUC3 mRNA/28S rRNA ratio, mean / MUC3 mRNA stimulation (in words): peptides at 50 μg/ml, 30 minutes at 37° C.; for MUC3 mRNA/28S rRNA ratio, mean / MUC3/28S rRNA ratio, mean: control = 100; for MUC3 mRNA stimulation (in words): versus control; for MUC3/28S rRNA ratio, mean: 30 min 37° C.
Source text: (§2) Different mucin genes have been identified and to date, thirteen human mucin genes have been identified. However, MUC3 mucin is the predominant small intestinal mucin. It has previously been shown that the MUC3 mucins are effective in preventing the adherence of enteropathogenic Escherichia coli (EPEC) to intestinal epithelial cells. […] It is also well known that breast-feeding infants are far less susceptible to infectious diarrhea than formula fed infants. There are a number of theories why this is so, but it is hypothesized that milk-associated amyloid (colostrum SAA) may be an important inducer of MUC3 gene expression. Applicant has evaluated MUC3 mRNA expression using an in vitro human cell culture assay system. […] To further explore this finding, Applicant has evaluated the functional specificity of the N-terminal peptide sequence of colostrum SAA by evaluation of MUC3 expression in the same in vitro assay using colostrum SAA N-terminal peptide sequences that have been randomly scrambled and a colostrum SAA peptide sequence downstream of the N-terminal sequence. If the expression of MUC3 is increased then intestinal cells grown in the presence of colostrum SAA should have a greater capacity to inhibit adherence of bacterial pathogens. This was studied (FIG. 2B) using EPEC in an in vitro assay system pre-incubated with colostrum SAA in the cell culture medium. Enteropathogenic E. coli are non-invasive, non-toxin producing pathogens that have been recognized as a significant cause of diarrhea in third world countries and in day care settings in developed countries. Future studies will evaluate the benefits of colostrum SAA in in vivo studies as well as characterized animal equivalent to human EPEC. Colostrum associated SAA provides a means to naturally upregulate the innate protective mechanisms of the human intestine and would provide a novel form of therapy to a common problem that occurs all too often in the third world leads to death of infants and in the developed world countries and leads to significant morbidity and cost. Thus, this is an effective, natural, non-drug/chemical therapy for all infectious diarrhea.
as §1
Intestinal epithelial cells, Mack et al. 1994, 1999, were exposed to the N-terminal 10 amino acid bovine colostrum-SAA peptide at various concentrations for 30 minutes incubation at 37° C. The cells were incubated an additional hour following replacement of the test medium with fresh medium without peptide and then the total cellular mRNA isolated and analyzed for MUC3 specific mRNA.
MUC3 stimulating activity of the N-terminal 10 amino acid bovine colostrum-SAA peptide was compared to the activity of the “Limited Scramble”, the “Total Scramble” and “C-Terminal peptides”. Optimum time and temperature of incubation and concentration of peptides was for 30 minutes at 37° C. at 50 μg/ml respectively.

[1] = system: EPEC adherence to HT29 human intestinal cells; test: Inhibition of EPEC adherence to HT29 cells (FIG. 4B); assay type: cell-based, enteropathogenic Escherichia coli; settings: before 10^6 CFU/well EPEC, 3 h incubation, P<0.03
Procedure: FIG. 4B is a graph showing the comparative inhibition of EPEC adherence to HT29 human intestinal cells grown in a glucose-free galactose-containing cell culture medium to enhance MUC3 expression. Each well received either 10^9 CFU of the probiotic L. rhamnosus strain GG (LrGG), a single dose (1×) of the 10-mer peptide at 50 μg/mL (LS, Bov50, or Hum50) or at 250 μg/mL (Bov250 or Hum250), or two separate doses (2×) at 1 h intervals of the 10-mer peptide at 250 μg/mL. Samples were incubated at 37° C. with the HT29 cells for either a total of 1 h (single dose, 1×) or 2 h (two doses, 2×) prior to the addition of 10^6 CFU/well of EPEC. After a 3 h incubation, EPEC adherent to the HT29 cells were quantified by determining CFU/well. Results are expressed as means ±SEM of 2-6 independent experiments run in triplicate. Amino acid sequences for the 10-mer peptides are detailed in Table 1 referred to on page 37.
as §2, with “Colostrum associated SAA provides a means to naturally upregulate the innate protective mechanisms of the human intestine and would provide a novel form of therapy to a common problem that occurs all too often in the third world leads to death of infants and in the developed world countries and leads to significant morbidity and cost. Thus, this is an effective, natural, non-drug/chemical therapy for all infectious diarrhea.” left out

[2] = system: Bovine MAC-T mammary gland epithelial cells; test: Colostrum-SAA production by MAC-T cells stimulated with prolactin (ELISA of growth media); assay type: cell-based
Procedure: Bovine MAC-T mammary gland epithelial cells were obtained from ATCC (CRL-10274) and cultured according to recommended conditions (Turner, J D and Huynh H. Immortalized bovine mammary epithelial cell line. U.S. Pat. No. 5,227,301 dated Jul. 13, 1993). MAC-T cells were cultured on Dulbecco's Modified Eagles Media (DMEM) supplemented with 10% Fetal Calf Serum (FCS), 5 μg/ml insulin, 1μg/ml hydrocortisone and fungizone. Cells were incubated at 37° C. with 5% CO2. For colostrum-SAA production the cells were seeded onto type I Collagen coated plates. After 14 hours of incubation, the cells were washed twice with Dulbecco's phosphate buffered saline (DPBS) and incubated in media (DMEM, 5 μg/ml insulin, 1 μg/ml hydrocortisone and 2.5% FCS) supplemented with prolactin from sheep pituitary gland (5 μg/ml) for the stimulation of colostrum-SAA production. Approximately one half of the media was replaced daily with fresh prolactin supplemented media. Standard ELISA for the quantitation of SAA was used to assay aliquots of the growth media collected on the different days for the presence of colostrum-SAA.
Cells were kept in culture for 41 days in media supplemented with prolactin. Levels of colostrum-SAA production reached a maximum of almost 3000 ng/ml.

[3] = Isoelectric focusing / 2-D gel of SAA preparations; assay type: physicochemical, bovine
Source text: The PROTEIN IEF Cell (BioRad) was used for the isoelectric focusing of the various SAA preparations. Ready Strip IPG Strips (BioRad Laboratories) with a pH range of 3-10 were used for the IEF. The second dimension (2-D) of the protein analysis was done by subjecting the IPG strips to 12% SDS-PAGE gel and electroblotting onto a PVDF membrane. The strips and blots were done in duplicate so that one of the blots could be stained with a protein stain, Coomassie Brilliant Blue, (CBB) and the other stained with the anti-SAA monoclonal antibody for the identification of the SAA protein isoforms. The samples also contained internal IEF standards (BioRad Laboratories) so that isoelectric point (pI) of each SAA isoforms could be determined. By comparing the antibody stained spots to the spots of the standards stained with CBB the apparent pI of the SAA isoforms could be determined. All of these procedures were done according to the protocol recommended by the manufacturer.
The proteins subjected to the IEF and 2-D analysis were either affinity purified as described for the cell culture fluid or, in the case of the serum only semi-purified by hydrophobic chromatography. SAA is a highly hydrophobic molecule and will bind readily to Octyl Sepharose beads and then under the appropriate conditions can be eluted off the matrix. Briefly, serum with an elevated SAA level was tumbled for one hour with an equal volume of Octyl Sepharose CL-4B gel to allow for hydrophobic binding of the proteins from the serum to the gel. […]
The PROTEIN IEF Cell (BioRad) was used for the isoelectric focusing of the MAA preparations. […] Ready strip IPG Strips (BioRad Laboratories) with a pH range of 3-10 and 7-10 were used for the IEF. […] By comparing the spots stained with the antibody on the blot of the 2D gel from the MAA purified from colostrum and the MAA from the culture fluid of MAC-T cells stimulated with LPS, the similarities of the isoforms could be determined. Each sample was first analyzed on a pH 3-10 IPG strip for the first dimension of separation and then a subsequent sample analyzed on a pH 7-10 IPG strip.

In the case of “GKFAWEGMTL [Total Scramble, control peptide, amino acids of the entire N-Terminal peptide arranged in random order, reference compound]”, the “MUC2 mRNA/28S rRNA ratio, mean” value (MUC2 mRNA) is reported as 65.833 and the “MUC3 mRNA/28S rRNA ratio, mean” value (MUC3 mRNA) is reported as 109.333.

In the case of GWLTFLKAAG [Hum], the “EPEC adherence to HT29 cells relative to untreated cells (in words)” value ([1]; 10-mer peptide at 50 μg/mL) is reported as “significantly decreased adherence of EPEC” and the “EPEC adherence to HT29 cells relative to untreated cells (in words)” value ([1]; 10-mer peptide at 250 μg/mL) is reported as “significantly decreased adherence of EPEC”.

In the case of “MWGLTKFEAG [Limited Scramble, Bovine MAA with TFLK motif scrambled]”, the “MUC2 mRNA/28S rRNA ratio, mean” value (MUC2 mRNA) is reported as 87.167, the “MUC3 mRNA/28S rRNA ratio, mean” value (MUC3 mRNA) is reported as 95.000 and the “MUC3 mRNA stimulation (in words)” value (MUC3 mRNA) is reported as “lack of stimulation”.

For MWGTFLKEAG [N-terminal], the “MUC2 mRNA stimulation (in words)” value (MUC2 mRNA; 100 and 500 μg/ml, and 2× incubation time (1 hr)) was “None of these changes resulted in MUC2 mRNA increase over control values”, the “MUC2 mRNA stimulation (in words)” value (MUC2 mRNA; concentrations and conditions optimized for MUC3 stimulation) was “not significantly different” and the “MUC2 mRNA/28S rRNA ratio, mean” value (MUC2 mRNA) was 101.167. For the same molecule, the “optimum concentration for MUC3 mRNA stimulation” value (MUC3 mRNA; 30 minutes incubation at 37° C.) was 50 µg/mL, the “MUC3/28S rRNA ratio, mean” value (MUC3 mRNA; peptide concentration 1 (μg/ml)) was 105.429 and the “MUC3/28S rRNA ratio, mean” value (MUC3 mRNA; peptide concentration 10 (μg/ml)) was 105.857. The “MUC3/28S rRNA ratio, mean” value (MUC3 mRNA; peptide concentration 25 (μg/ml)) was 145.000, the “MUC3/28S rRNA ratio, mean” value (MUC3 mRNA; peptide concentration 50 (μg/ml)) was 220.500 and the “MUC3/28S rRNA ratio, mean” value (MUC3 mRNA; peptide concentration 100 (μg/ml)) was 103.125. The “MUC3 mRNA/28S rRNA ratio, mean” value (MUC3 mRNA) was 174.833, the “MUC3 mRNA stimulation (in words)” value (MUC3 mRNA) was “increased MUC3 mRNA expression” and the “MUC3 mRNA stimulation (in words)” value (MUC3 mRNA; listed as N-Terminal) was “the only peptide that stimulated MUC3 mRNA statistically significantly over the control values”. The “EPEC adherence to HT29 cells relative to untreated cells (in words)” value ([1]; 10-mer peptide at 50 μg/mL) was “significantly decreased adherence of EPEC” and the “EPEC adherence to HT29 cells relative to untreated cells (in words)” value ([1]; 10-mer peptide at 250 μg/mL) was “significantly decreased adherence of EPEC”.

With “SAADAAQRGPQQA [C-terminal, control 10 amino acid peptide in which the first 7 were from residues 62-69 of bovine SAA, reference compound]” the “MUC2 mRNA/28S rRNA ratio, mean” value (MUC2 mRNA) was 67.500 and the “MUC3 mRNA/28S rRNA ratio, mean” value (MUC3 mRNA) was 111.333.

B1: prolactin: prolactin from sheep pituitary gland (protein, UniProt P01240 31-229, looked up)
Prolactin: TPVCPNGPGNCQVSLRDLFDRAVMVSHYIHNLSSEMFNEFDKRYAQGKGFITMALNSCHTSSLPTPEDKEQAQQTHHEVLMSLILGLLRSWNDPLYHLVTEVRGMKGVPDAILSRAIEIEEENKRLLEGMEMIFGQVIPGAKETEPYPVWSGLPSLQTKDEDARHSAFYNLLHCLRRDSSKIDTYLKLLNCRIIYNNNC
With B1 the “maximum level of colostrum-SAA production” value ([2]; media supplemented with prolactin 5 μg/ml, 41 days in culture, collagen coated plates) was ~3000 ng/mL and the “day by which measurable quantities of colostrum-SAA could be detected” value ([2]; prolactin at 5 μg/ml, MAC T cells, 13 days of stimulation (FIG. 2)) was ≤ 1 days.

B2: colostrum-SAA: bovine mammary-associated serum amyloid A 3, purified from colostrum or MAC-T cell culture fluid (protein)
chain: QRWGTFLKEAGQGAKDMWRAYQDMKEANYRGADKYFHARGNYDAARRGPGGAWAAKVISNARETIQGITDPLFKGMTRDQVREDSKADQFANEWGRSGKDPNHFRPAGLPDKY
In the case of B2, the pI ([3]; from both colostrum and MAC-T cell culture fluid (prolactin), pH 3-10 IPG strips) is reported as “greater than 8”, the “apparent pI” value ([3]; pH 3-10 IPG strips, internal IEF standards) is reported as 9.4-9.6 and the pI ([3]; purified from culture fluid of MAC-T cells stimulated with LPS, only one isoform, pH 3-10 and 7-10 IPG strips) is reported as 9.4-9.6.
